From PMC4363092 (Journal of medicinal chemistry, 2014) come the findings set out here.

The target of data set [1] is T1, TNAP (Homo sapiens, UniProt P05186).
T1 sequence (P05186 18-502 limits assumed): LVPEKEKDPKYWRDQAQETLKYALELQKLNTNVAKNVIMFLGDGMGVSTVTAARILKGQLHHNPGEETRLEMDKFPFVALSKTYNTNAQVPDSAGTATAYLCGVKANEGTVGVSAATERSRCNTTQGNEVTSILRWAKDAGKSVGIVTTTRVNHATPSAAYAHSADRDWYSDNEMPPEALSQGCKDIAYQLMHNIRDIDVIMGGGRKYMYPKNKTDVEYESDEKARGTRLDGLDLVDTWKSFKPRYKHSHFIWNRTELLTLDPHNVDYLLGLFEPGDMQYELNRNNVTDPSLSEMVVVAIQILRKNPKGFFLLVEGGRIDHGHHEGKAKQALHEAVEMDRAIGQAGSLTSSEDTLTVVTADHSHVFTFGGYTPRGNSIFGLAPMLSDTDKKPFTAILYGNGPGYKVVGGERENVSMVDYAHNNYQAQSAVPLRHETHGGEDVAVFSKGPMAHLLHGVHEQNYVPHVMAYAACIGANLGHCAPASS
The experiment in a line: TNAP stability assay: hydrolysis by TNAP. The settings on record: 1 h, pH 9, 100 μM (data not shown). Type of data set: in vitro ADME.

The target in data set [2] is T2, human NPP1 (Homo sapiens, UniProt P22413).
T2 sequence (P22413 1-925): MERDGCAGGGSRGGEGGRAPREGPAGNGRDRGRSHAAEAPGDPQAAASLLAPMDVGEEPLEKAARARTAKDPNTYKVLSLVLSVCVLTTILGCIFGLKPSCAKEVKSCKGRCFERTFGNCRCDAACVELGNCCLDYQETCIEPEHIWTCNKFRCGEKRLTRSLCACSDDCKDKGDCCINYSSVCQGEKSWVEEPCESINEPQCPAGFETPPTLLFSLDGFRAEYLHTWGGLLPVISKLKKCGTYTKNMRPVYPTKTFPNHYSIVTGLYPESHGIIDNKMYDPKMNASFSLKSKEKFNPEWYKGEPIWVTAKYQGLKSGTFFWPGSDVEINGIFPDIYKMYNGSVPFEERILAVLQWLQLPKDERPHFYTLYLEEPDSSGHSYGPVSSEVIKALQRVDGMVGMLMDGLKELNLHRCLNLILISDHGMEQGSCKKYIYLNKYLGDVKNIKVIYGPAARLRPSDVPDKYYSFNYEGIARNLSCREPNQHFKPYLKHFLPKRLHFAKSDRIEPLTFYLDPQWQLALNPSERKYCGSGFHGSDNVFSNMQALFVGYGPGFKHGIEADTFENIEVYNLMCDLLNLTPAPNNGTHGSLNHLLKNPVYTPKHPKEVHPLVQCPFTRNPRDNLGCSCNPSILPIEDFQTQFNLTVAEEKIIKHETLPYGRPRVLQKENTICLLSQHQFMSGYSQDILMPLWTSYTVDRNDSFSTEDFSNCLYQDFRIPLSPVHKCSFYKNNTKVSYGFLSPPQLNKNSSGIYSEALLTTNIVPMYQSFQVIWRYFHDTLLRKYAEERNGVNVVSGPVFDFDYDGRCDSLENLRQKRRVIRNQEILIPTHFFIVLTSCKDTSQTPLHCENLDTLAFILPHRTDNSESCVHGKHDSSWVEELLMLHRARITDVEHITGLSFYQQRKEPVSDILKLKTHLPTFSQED
The experiment in a line: Inhibition of NPP1, pNP-TMP as substrate. The format is biochemical. The settings on record: Dixon and Cornish–Bowden methods.

In data set [3] the target is T2, human NPP1. Kind of data set: Inhibition of NPP1, ATP as substrate. The format is biochemical. The settings on record: analogue 100 μM, ATP 100 μM.
Data set [4] addresses T1, TNAP. Kind of data set: Inhibition of TNAP activity. Type of data set: biochemical. Conditions: analogue 100 μM.
The next data set has as its target P2Y2 receptor (Homo sapiens, UniProt P41231). The experiment in a line: [Ca2+]i response in 1321N1 astrocytoma cells expressing GFP-P2Y2 receptor. The settings on record: for agonist activity at P2Y2R: 100 μM; for inhibition of the typical response to UTP at P2Y2R: 1321N1 cells (data not shown). Type of data set: cell-based.
A further data set concerns the target T3, human NTPDase2 (Homo sapiens, UniProt Q9Y5L3).
T3 sequence (Q9Y5L3 1-495): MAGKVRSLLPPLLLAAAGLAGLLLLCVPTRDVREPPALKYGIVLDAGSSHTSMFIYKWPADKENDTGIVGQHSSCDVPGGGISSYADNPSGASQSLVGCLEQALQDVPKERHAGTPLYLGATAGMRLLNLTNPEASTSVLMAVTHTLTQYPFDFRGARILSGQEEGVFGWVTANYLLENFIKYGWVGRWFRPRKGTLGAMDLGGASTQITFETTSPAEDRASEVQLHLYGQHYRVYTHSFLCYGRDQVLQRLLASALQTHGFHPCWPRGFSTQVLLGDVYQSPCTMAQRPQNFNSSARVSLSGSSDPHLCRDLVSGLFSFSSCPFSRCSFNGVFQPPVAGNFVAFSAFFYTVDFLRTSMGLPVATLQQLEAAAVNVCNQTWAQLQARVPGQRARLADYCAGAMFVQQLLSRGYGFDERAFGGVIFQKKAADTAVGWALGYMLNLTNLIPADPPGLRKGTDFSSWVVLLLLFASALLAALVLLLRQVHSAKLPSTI
Conditions: analogue 100 μM as substrate; activity with 100 μM ATP set as 100%.

The next data set concerns the target T4, human NTPDase3 (Homo sapiens, UniProt O75355).
T4 sequence (O75355 1-529): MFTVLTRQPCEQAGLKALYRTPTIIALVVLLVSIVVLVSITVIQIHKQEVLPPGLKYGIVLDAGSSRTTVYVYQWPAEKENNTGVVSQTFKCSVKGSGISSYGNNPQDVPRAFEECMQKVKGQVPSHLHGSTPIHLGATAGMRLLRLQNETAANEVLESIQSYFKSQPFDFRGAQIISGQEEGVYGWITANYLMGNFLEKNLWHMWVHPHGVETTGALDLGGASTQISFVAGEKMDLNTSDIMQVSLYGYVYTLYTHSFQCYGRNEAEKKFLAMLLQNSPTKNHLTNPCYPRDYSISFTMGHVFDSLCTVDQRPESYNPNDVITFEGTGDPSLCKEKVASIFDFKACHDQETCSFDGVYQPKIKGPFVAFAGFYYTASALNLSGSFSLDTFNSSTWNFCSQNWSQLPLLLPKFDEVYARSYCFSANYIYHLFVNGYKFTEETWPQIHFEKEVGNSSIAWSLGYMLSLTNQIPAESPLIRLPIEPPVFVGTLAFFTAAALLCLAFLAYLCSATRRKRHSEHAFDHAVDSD
Conditions: analogue 100 μM as substrate; activity with 100 μM ATP set as 100%.

Each structure is given as a SMILES string.

Chain of P2Y2 receptor (P41231 whole entry): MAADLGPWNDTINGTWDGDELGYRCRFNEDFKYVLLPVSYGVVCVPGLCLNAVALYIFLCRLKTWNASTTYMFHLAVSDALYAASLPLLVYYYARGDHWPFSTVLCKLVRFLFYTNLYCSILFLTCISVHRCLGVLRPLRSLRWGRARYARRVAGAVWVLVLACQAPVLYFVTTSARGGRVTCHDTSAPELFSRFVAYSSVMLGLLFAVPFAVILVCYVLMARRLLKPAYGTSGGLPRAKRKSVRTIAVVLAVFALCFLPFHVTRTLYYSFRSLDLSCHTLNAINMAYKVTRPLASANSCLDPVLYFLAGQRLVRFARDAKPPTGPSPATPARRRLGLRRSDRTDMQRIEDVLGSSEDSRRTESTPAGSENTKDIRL

Regarding `Nc1ncnc2c1ncn2[C@@H]1O[C@H](CO[P@](O)(=S)OP(=O)(O)C(Cl)(Cl)P(=O)(O)O)[C@@H](O)[C@H]1O` [2a], the “hydrolysis by TNAP” value at TNAP [1] is recorded as “fully stable”. In addition, at human NPP1 [2], the type of inhibition entry is “mixed-type inhibition, predominantly competitive”. Besides, the “inhibition of ATP hydrolysis by NPP1” value at human NPP1 [3] was “about 90%”. Moreover, the “inhibition of TNAP” value on TNAP [4] is listed as 8–17%. Also, at P2Y2 receptor, the “agonist activity at P2Y2R” value is on record as “no activity” and the “inhibition of the typical response to UTP at P2Y2R” value is listed as “did not inhibit”. Also, the “relative activity (%) ± SD of ATP hydrolysis, NTPDase2” value on human NTPDase2 is given as 5.2 ± 0.1%. For the same compound, the “relative activity (%) ± SD of ATP hydrolysis, NTPDase3” value at human NTPDase3 came out at 5.2 ± 0.2%.

Regarding `Nc1ncnc2c1ncn2[C@@H]1O[C@H](COP(=O)(O)CP(=O)(O)OP(O)(O)=S)[C@@H](O)[C@H]1O` [compound 3], the “hydrolysis by TNAP” value on TNAP [1] was found to be 2.5%. The type of inhibition entry on human NPP1 [2] is recorded as “mixed-type inhibition, predominantly competitive”. Moreover, the “inhibition of ATP hydrolysis by NPP1” value against human NPP1 [3] is given as “about 90%”. In addition, on TNAP [4], the “inhibition of TNAP” value is on record as 8–17%. Further, on P2Y2 receptor, the “agonist activity at P2Y2R” value is reported as “no activity” and the “inhibition of the typical response to UTP at P2Y2R” value is recorded as “did not inhibit”. In addition, the “relative activity (%) ± SD of ATP hydrolysis, NTPDase2” value at human NTPDase2 was 4.7 ± 0.2%. Moreover, on human NTPDase3, the “relative activity (%) ± SD of ATP hydrolysis, NTPDase3” value amounted to 4.8 ± 0.2%.
